Data from US7541156B1, “Method of identifying antinociceptive compounds using protease activated receptor-2” (priority 2000, dated 2009).
Entries after “also recorded” stand apart in the source; their conditions may differ.

Key:
PAR-2 = target: T1, PAR-2 (Homo sapiens, UniProt P55085); settings: Blackhart et al. 1996; cited from earlier work
T1 sequence (P55085 26-397): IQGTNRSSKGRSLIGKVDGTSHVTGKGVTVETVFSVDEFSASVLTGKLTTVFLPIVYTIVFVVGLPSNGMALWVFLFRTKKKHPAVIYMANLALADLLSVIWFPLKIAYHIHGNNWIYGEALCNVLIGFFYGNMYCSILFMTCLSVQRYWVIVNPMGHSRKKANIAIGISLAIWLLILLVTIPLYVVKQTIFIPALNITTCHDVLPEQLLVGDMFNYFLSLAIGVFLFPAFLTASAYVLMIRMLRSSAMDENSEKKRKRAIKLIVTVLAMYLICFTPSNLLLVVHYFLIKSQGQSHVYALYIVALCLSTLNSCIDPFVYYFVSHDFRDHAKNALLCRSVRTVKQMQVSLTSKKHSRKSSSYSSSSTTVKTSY

PAR-1 = target: T2, PAR-1 (Homo sapiens, UniProt P25116); settings: Blackhart et al. 1996; cited from earlier work
T2 sequence (P25116 22-425): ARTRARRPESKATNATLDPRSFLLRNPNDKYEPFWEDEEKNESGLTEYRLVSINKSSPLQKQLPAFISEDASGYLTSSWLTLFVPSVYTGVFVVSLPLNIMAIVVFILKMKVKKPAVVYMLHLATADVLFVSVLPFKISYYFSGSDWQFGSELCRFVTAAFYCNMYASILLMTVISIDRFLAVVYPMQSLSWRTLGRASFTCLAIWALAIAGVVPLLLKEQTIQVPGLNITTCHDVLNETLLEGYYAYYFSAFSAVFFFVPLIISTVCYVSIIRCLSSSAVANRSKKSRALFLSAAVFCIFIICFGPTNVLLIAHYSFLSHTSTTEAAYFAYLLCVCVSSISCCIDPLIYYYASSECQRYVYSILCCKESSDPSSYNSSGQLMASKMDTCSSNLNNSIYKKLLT

[1] = system: pancreatic afferent neurons / spinal segments T8-T10; assay: c-FOS expression in spinal cord segments after pancreatic intraductal injection; type: in vivo, rat
Experimental: Intraductal (pancreatic duct) injection. To administer the necessary peptides directly into the rat pancreatic duct we followed a modified protocol, previously described by Kim et al. (1996). In brief, rats were anesthetized i.p. with nembutal sodium (Abbot Laboratories, Chicago, Ill.) (50 mg/kg body weight). The peritoneum was incised to expose the duodenum and the duodenal loop was pulled out. The pancreatic duct entering the duodenum was identified under dissecting microscope and a small niche was made into the duct with a 30-gauge needle. A polyethylene 10 tubing (0.61 mm outer diameter) (Becton Dickinson and Company, Franklin Lakes, N.J.) was guided into the duct and tied to secure its position. The common bile duct was ligated close to the liver to prevent entry of the injected substance into the liver. Similarly the duct was ligated near its entry into the duodenum. The position of the tube into the pancreatic duct was confirmed by freely flowing bile through the tubing. […] Thirty minutes later Capsaicin 0.5 mg/kg (total volume 500 μl) or vehicle (1×PBS, 10% ETOH, 1% Tween) was injected to half of the AcPep or CoPep injected rats. Three rats were included in each treatment group (n=3 for number of experiments). The tubing was carefully removed and bile flow from the liver into the duodenum was re-established. The abdominal cavity was closed with sutures. Rats were sacrificed 2.5 hrs after the initial injection.
C-fos staining. Rats were anesthetized with sodium pentobarbital (50 mg/kg i.p.) and perfused with 200 mls PBS followed by 500 mls ice-cold freshly prepared 4% paraformaldehyde in PBS. Spinal cord (level T5-T13) was removed, post-fixed in 4% paraformaldehyde for 18 hrs at 4° C. and placed in PBS (pH 7.4) containing 30% sucrose for 24 hrs at 4° C. Frozen sections (40 μm) were cut on a cryostat and stored as floating sections in PBS at 4° C. Every third section was stained for c-fos with a rabbit polyclonal serum, 1:1000 dilution, (c-fos, Ab-5, Oncogene Research Products) utilizing manufacturer's protocol. Antibody staining was visualized using a biotinylated secondary antisera and Vectastain ABC peroxidase kit with DAB as substrate. Sections were mounted on Superfrost Plus slides (VWR Scientific, West Chester, Pa.) and dehydrated. The number of c-FOS immunoreactive (IR) neurons were counted in 10 randomly chosen sections per segment under brightfield illumination and then averaged.
Statistics. Release data are presented as the mean± standard error of the mean (SEM) of wells from three separate experiments. […] Intraductal injection studies were analyzed using a repeated measure ANOVA and individual means were compared using a Newman-Keuls multiple comparison test. […]

For “SLIGRL (PEPTIDE (1)..(6) PAR-2 activating peptide; listed as Rattus sp.) [AcPep]”, the “activation of PAR-2” value (PAR-2) is given as “only activates PAR-2”, the “activation of PAR-1” value (PAR-1) is given as “does not activate PAR-1” and the “c-FOS IR neurons in segments T8-T10, peptide alone” value ([1]; 100 μM infused into the pancreatic duct, 2.5 hours, compared to CoPep) is given as “more c-FOS IR neurons; also recorded: does increase c-FOS expression”. The “c-FOS expression in spinal segments T8-T10, peptide alone” value ([1]; intraductal injection of AcPep 10 μM, 2.5 hours later, compared to control rats) was “significantly increased” and the “Capsaicin-evoked c-FOS expression in segments T8-T10” value ([1]; peptide 100 μM intraductal, followed 30 min later by Capsaicin 0.5 mg/kg, 2.5 hours) was “more c-FOS; also recorded: enhanced Capsaicin-evoked c-FOS expression”.
